Like-named read-outs stand apart in the source and are kept apart here.
Key:
[1] = test system: Susceptible Musca domestica; assay: Glass jar contact bioassay, susceptible (laboratory) house flies
Experimental: Briefly, adult house flies, Musca domestica, are obtained from strains that have been reared in the laboratory of the Entomology and Nematology Department, University of Florida. […] The positive control is exposed to serial dilutions of permethrin. The negative control is not exposed to any chemical compound. The mortality rate is measured after 2-hour, 4-hour, and 24-hour periods. Ataxic flies are considered dead.
(§1) The ability of house flies to recover from insecticidal exposure is also investigated. After a 2-hour exposure, each set of flies is transferred into a separate glass jar. The mortality rate is measured at two time intervals: first, immediately at the transfer (2 hours after the initial exposure), and second, 22 hours after the transfer (24 hours after the initial exposure).
The mortality rate is analyzed using the PROBIT model. The data is adjusted based on the mortality rate in the control set using the Abbott's transformation, and the percent mortality is further analyzed based on ANOVA measurement. The experiment is repeated at least three times. The data is discarded if the mortality rate in the control set exceeds 10%. The LC50 and LC90 values are further determined using the SAS (Cary, N.C., USA) statistical software. For each chemical compound, at least 1280 flies are examined.

[2] = test system: Musca domestica; conditions: M. domestica; formulation on plywood panels at 1.67 mg cm^−2; mortality 24 h after
Experimental: (§2) Briefly, each fly strain is divided into eight sets: three sets as the experiment, four sets as the positive control, and one set as the negative control. Flies are assayed on unpainted plywood panel boards that have been previously exposed to natural summer weather conditions for at least 10 days. […] The positive control set is treated with permethrin, geranyl acetone, rosalva or citronellol. The negative control set is treated with water. The formulation is applied at a uniform rate of 7.5 ml per 225 cm^2, sufficient to cover the entire panel without dripping. Subsequently, the treated panel boards are dried for about an hour.
(§3) In each set, 20 adult flies are placed onto the panel boards. Flies are secured with wooden embroidery hoops, covered with a coarse mesh screen cloth previously sprayed with the respective formulation. After 4 hours, flies are transferred into a clean jar. The mortality rate is measured 24 hours after the transfer, and is determined using the same procedures as are illustrated in Example 2.
(§4) Plywood panels (225 cm^2) were treated with chemicals at a rate of 1.67 mgcm^−2. Panels were treated on day 0 and held until exposure on post-treatment day. Mosquitoes were exposed to chemicals for 2 h, and mortality rate was assessed 24 h after initial exposure. Control contained formulation ingredients without semiochemicals.

[3] = test system: Stomoxys calcitrans; conditions: S. calcitrans; formulation on plywood panels at 1.67 mg cm^−2; mortality 24 h after
Experimental: as §2, §3, §4

[4] = test system: Aedes aegypti; conditions: formulation on plywood panels at 1.67 mg cm^−2, 2 h exposure, mortality 24 h after initial exposure
Experimental: Briefly, after mosquitoes are assayed on unpainted plywood panel boards with formulation at a concentration of 1.67 mg cm^−2 for 2 hours, they are transferred into a separate glass jar, and held for another 24 hours. The mortality rate is measured daily for a continuous 4 days (Day 1 starts at 24 hours after the transfer), as is determined using the same procedures as are illustrated in Example 2.
as §4, with “of 1.67 mg cm^−2. Panels were” for “of 1.67 mgcm^−2. Panels were”, “0 and was held until” for “0 and held until”

[5] = test system: Field-collected Musca domestica
Experimental: Briefly, one Musca domestica strain is collected from the University of Florida dairy unit in Alachua County, Florida, U.S.A. (“the Alachua strain”). The other Musca domestica strain is collected from a dairy farm in Gilchrist County, Florida, U.S.A. (“the Gilchrist strain”). Both strains are colonized adults, and are subsequently reared at 27° C. in the laboratory of the Entomology and Nematology Department, University of Florida.
The positive control is exposed to serial dilutions of permethrin. The negative control is not exposed to any chemical compound. 1 mL of insecticide was dissolved in acetone (concentrations between 0.5 and 20 mg mL^−1) in a 60 mL glass jar having a 67.86 cm^2 inside surface area (Wheaton, Millville, N.J.). Jars were allowed to dry for 1 h prior to fly introduction. Flies were held in jars for 2, 4 and 24 h, and fly mortality rate was scored at that time. Sugar water (10%) was provided in all assays, unless stated otherwise. The mortality rate is measured after a 2-hour, 4-hour, and 24-hour period. Ataxic flies are considered dead. The mortality rate and the LC values are determined using the same procedures as is illustrated in Example 2.

[6] = test system: Aedes aegypti; conditions: On camouflage military fabric
Experimental: (§5) The mortality rate is measured after a 2-hour, 4-hour and 24-hour exposure period. Ataxic mosquitoes are considered dead.
as §1, with “Ae. aegypti” for “house flies”, “Ae. aegypti” for “flies”, “separate” for “separate glass”
The mortality rate and the LC values are determined using the same procedures as is illustrated in Example 2.

[7] = test system: Aedes aegypti; conditions: On filter paper
Experimental: Briefly, yellow fever mosquito, Ae. aegypti were obtained from strains that have been cultured in the laboratory of the Entomology and Nematology Department, University of Florida.
as §5
as §1, with “Ae. aegypti” for “house flies”, “Ae. aegypti” for “flies”, “separate” for “separate glass”

[8] = test system: Musca domestica; conditions: formulation on plywood panels, 3.33 mg cm^−2 (footnote 1.67), 2 h exposure, mortality 24 h after
Experimental: Briefly, after Musca domestica is exposed to formulations at concentration of 3.33 mg cm^−2 for 2 hours, each set is transferred into a separate glass jar, and held for another 24 hours.
as §4, with “of 1.67 mg cm^−2. Panels were” for “of 1.67 mgcm^−2. Panels were”, “0 and was held until” for “0 and held until”

[9] = 2 h constant exposure, glass jar
[10] = 2 h exposure, transferred to clean jars, mortality 24 h after initial exposure
[11] = 4 h constant exposure, glass jar
[12] = 24 h constant exposure, glass jar
[13] = Alachua strain, 2 h constant exposure
[14] = Alachua strain, 4 h constant exposure
[15] = Alachua strain, 24 h constant exposure
[16] = Gilchrist strain, 2 h constant exposure
[17] = Gilchrist strain, 4 h constant exposure
[18] = Gilchrist strain, 24 h constant exposure
[19] = 2 h exposure then transferred, mortality 24 h after initial exposure

Substance: permethrin [reference compound]
- LC50 [1, 9]: 0.18 μg cm^−2
- LC90 [1, 9]: 1.20 μg cm^−2
- LC50 [1, 10]: 0.58 μg cm^−2
- LC90 [1, 10]: 3.56 μg cm^−2
- decline in toxicity after a 24-hour holding period subsequent to an initial 2-hour exposure ([1]; 2 h transferred vs 2 h constant): ~3 fold
- LC50 [1, 11]: 0.10 μg cm^−2
- LC90 [1, 11]: 0.95 μg cm^−2
- LC50 [1, 12]: 0.03 μg cm^−2
- LC90 [1, 12]: 0.41 μg cm^−2
- % mortality [2]: 88.40a %
- % mortality [3]: 100.00a %
- % mortality on various days following treatment ([4]; day 1): 100.00a %
- % mortality on various days following treatment ([4]; day 2): 99.00a %
- % mortality on various days following treatment ([4]; day 3): 98.0a %
- % mortality on various days following treatment ([4]; day 4): 96.50a %
- LC50 [5, 13]: 4.61 μg cm^−2
- LC90 [5, 13]: 14.86 μg cm^−2
- LC50 [5, 14]: 4.10 μg cm^−2
- LC90 [5, 14]: 15.85 μg cm^−2
- LC50 [5, 15]: 0.99 μg cm^−2
- LC90 [5, 15]: 3.78 μg cm^−2
- LC50 [5, 16]: 0.41 μg cm^−2
- LC90 [5, 16]: 1.82 μg cm^−2
- LC50 [5, 17]: 0.39 μg cm^−2
- LC90 [5, 17]: 1.51 μg cm^−2
- LC50 [5, 18]: 0.16 μg cm^−2
- LC90 [5, 18]: 0.85 μg cm^−2
- LC50 ([6]; 2 h constant exposure): 0.012 μg cm^−2
- LC50 [6, 19]: 0.45 μg cm^−2
- LC50 ([6]; 4 h constant exposure): 0.0009 μg cm^−2
- LC50 ([6]; 24 hr constant exposure): 0.00031 μg cm^−2
- LC50 ([7]; 2 h constant exposure): 0.02 μg cm^−2
- LC50 [7, 19]: 0.04 μg cm^−2
- LC50 ([7]; 4 h constant exposure): 0.0018 μg cm^−2
- LC50 ([7]; 24 hr constant exposure): 0.00045 μg cm^−2
- % mortality on various days following treatment ([8]; day 1): 100.00a %
- % mortality on various days following treatment ([8]; day 2): 90.50a %
- % mortality on various days following treatment ([8]; day 3): 97.50a %
- % mortality on various days following treatment ([8]; day 5): 97.50a %
- % mortality on various days following treatment ([8]; day 7): 97.50a %
- % mortality on various days following treatment ([8]; day 14): 67.00a %

Reference: patent US8772348B2, “Materials and methods for pest control” (priority 2009, dated 2014)
